According to US10799605B2 (3B PHARMACEUTICALS GMBH, priority 2014, dated 2020):
Like-named read-outs stand apart in the source and are kept apart here. Values belong to the compound of their own block, whether it stands above or below them.

Tests used:
NTR1 [1] = molecular target: T1, NTR1 (Homo sapiens (Human), UniProt P30989); assay: Radioligand binding assay NTR1 (example part I)
Experimental: In order to determine the binding affinity of compounds comprising a radiolabel for NTR1, a radioligand binding assay was carried out. A radioligand is a radioactive biochemical substance that is used for diagnosis or for research-oriented study of cellular receptor systems of the body. In […] systems it is often used to quantify the binding of a test molecule to the binding site of radioligand. The higher the affinity of the molecule, the more radioligand is displaced from the binding site. The amount of bound radioligand can be measured by scintillation counting and thereby quantified. This assay is commonly used to calculate binding constants of molecules to receptors.
The NTR1 radioligand binding assay was performed by Cerep (Celle l'Evescault, France; Catalog reference 0109) according to Vita et al., FEBS Lett., 1993, 317, 139-142. NTR1 was prepared from CHO cells recombinantly expressing the human receptor and incubated with 0.05 nM ^125I-(Tyr^3-neurotensin) and serial dilutions of the test compounds. […] The result for each test compound is expressed as IC50 concentration and provides a measure for the affinity of the test compound for NTR1.

NTR1 [2] = molecular target: T1, NTR1; assay: Functional Ca2+ mobilisation assay (example part I); type: cell-based
Text: (§1) Ca^2+ ions are usually kept at nanomolar levels in the cytosol of cells, and act in a number of signal transduction pathways as second messengers. […] Changes in calcium ion concentration in standard assay protocols can be readily detected with fluorescent dyes that emit light when changes in intracellular Ca^2+ ion concentration occur. Given the transient nature of these responses, they are often read with instrumentation that has ‘inject and read’ capability.
(§2) HT29 or NTR1-expressing HEK293 cells were trypsinized and seeded into black flat clear-bottom 96-well plates (Corning, Amsterdam, The Netherlands) at […] cells per well. After 24 h incubation at 37° C. and 5% CO2, cells were washed twice with wash buffer (130 mM NaCl, 5 mM KCl, 10 mM Hepes, 2 mM CaCl2, 10 mM Glucose, pH 7.4) and loaded with 100 μl of Ca5 dye (Molecular Devices, Biberach, Germany) for 1 h at 37° C. and 5% CO2. For agonist assays, serial dilutions of agonistic substances were added to the cells loaded with dye and the change of the fluorescent signal was recorded continually for approx. 90 s using a FlexStation II (Molecular Devices, Biberach, Germany). Addition of wash buffer served as a control. Thus, EC50 concentrations for each conjugate were computed and provided a measure for the potency of the substance. For antagonist assays, cells loaded with 100 μl of Ca5-dye were pre-incubated with serial dilutions of antagonistic substances for 30 min, before the EC80-concentration of agonist was added to the cells and the change of the fluorescent signal was recorded continually for approx. 90 s. Thus, IC50 concentrations were computed for each conjugate and provided a measure for the inhibitory activity of the conjugates at the NTR1.

NTR1 [3] = molecular target: T1, NTR1; assay: Functional Ca2+ mobilisation assay (example part II); type: cell-based; conditions: antagonist assay
Text: as §1, with “intracellular Ca2^+” for “intracellular Ca^2+”
as §2, with “compound” for “conjugate”, “compounds” for “conjugates”

[4] = 0.05 nM 125I-(Tyr3-neurotensin), 60 min at 4° C., read-out: IC50
[5] = agonist assay, * bell-shaped curves, EC50 from ascending part of the curve, read-out: Agonistic Effect EC50
[6] = antagonist assay, 30 min pre-incubation, EC80-concentration of agonist, read-out: Antagonistic Effect IC50

T1 sequence (P30989 whole entry): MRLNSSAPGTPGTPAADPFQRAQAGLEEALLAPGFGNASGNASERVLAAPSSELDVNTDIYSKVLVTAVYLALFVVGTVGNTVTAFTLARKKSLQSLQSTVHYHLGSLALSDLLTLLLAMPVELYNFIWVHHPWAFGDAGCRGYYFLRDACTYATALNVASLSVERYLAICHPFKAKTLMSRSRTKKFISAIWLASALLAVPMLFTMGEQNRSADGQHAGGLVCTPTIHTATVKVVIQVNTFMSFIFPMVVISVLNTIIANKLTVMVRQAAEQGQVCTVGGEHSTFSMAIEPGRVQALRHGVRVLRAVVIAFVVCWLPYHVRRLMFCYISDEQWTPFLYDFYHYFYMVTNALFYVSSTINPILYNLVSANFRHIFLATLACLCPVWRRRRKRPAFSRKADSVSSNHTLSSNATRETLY

Structure (SMILES): COc1cccc(OC)c1-c1cc(C(=O)NC2(C(=O)O)C3CC4CC(C3)CC2C4)nn1-c1ccc(C(=O)N(C)CCCN(C)CCCN(C)C(=O)CCCC(=O)NCCCOCCOCCOCCCNC(=O)CCC(=O)N[C@@H](CCCCNC(=O)CN2CCN(CC(=O)O)CCN(CC(=O)O)CCN(CC(=O)O)CC2)C(=O)NCCCOCCOCCOCCCNC(=O)CCC(=O)NCCCC(=O)N[C@@H](CCCNC(=N)N)C(=O)N[C@@H](CCCNC(=N)N)C(=O)N2CCC[C@H]2C(=O)N[C@@H](Cc2ccc(O)cc2)C(=O)N[C@H](C(=O)N[C@@H](CC(C)C)C(=O)O)C(C)(C)C)cc1C(C)C (stereo partly drawn) [(16), 1206-Glutar-Ttds-Lys(DOTA)-Ttds-GABA-Arg-Arg-Pro-Tyr-Tle-Leu-OH]
IC50 (NTR1 [1]): 0.14 nM
EC50 (NTR1 [2]): 4 nM
IC50 (NTR1 [2]): 3.8 nM
shape of EC50 curve (NTR1 [2]; agonist assay): bell-shaped EC50 curves

Structure (SMILES): COc1cccc(OC)c1-c1cc(C(=O)NC2(C(=O)O)C3CC4CC(C3)CC2C4)nn1-c1ccc(C(=O)N(C)CCCN(C)CCCN(C)C(=O)CCCC(=O)NCCCCCC(=O)N[C@@H](CCCCNC(=O)CN2CCN(CC(=O)O)CCN(CC(=O)O)CCN(CC(=O)O)CC2)C(=O)N[C@@H](CCCCNC(=O)CCCC(=O)N(C)CCCN(C)CCCN(C)C(=O)c2ccc(-n3nc(C(=O)NC4(C(=O)O)C5CC6CC(C5)CC4C6)cc3-c3c(OC)cccc3OC)c(C(C)C)c2)C(N)=O)cc1C(C)C (stereo partly drawn) [(14), 1206-Glutar-Ahx-Lys(DOTA)-(ε-Lys-NH2)-Glutar-1206]
IC50 (NTR1 [1]; [4]): 2.4 nM
EC50 (NTR1 [2]; [5]): > 50000 nM
IC50 (NTR1 [2]; [6]): 2.3 nM

IC50 [nM] Ca (NTR1 [3]): inactivity
Structure (SMILES): COc1cccc(OC)c1-c1cc(C(=O)NC2(C(=O)NCCNC(=O)CN3CCN(CC(=O)O)CCN(CC(=O)O)CCN(CC(=O)O)CC3)C3CC4CC(C3)CC2C4)nn1-c1ccc(C(=O)N(C)CCCN(C)C)cc1C(C)C (stereo not drawn) [(XVII), 5-(2,6-Dimethoxy-phenyl)-1-{4-[(3-dimethylamino-propyl)-methyl-carbamoyl]-2-isopropyl-phenyl}-1H-pyrazole-3-carboxylic acid [2-(2-DOTA-amino-ethylcarbamoyl)-adamantan-2-yl]-amide, reference compound]

Structure (SMILES): COc1cccc(OC)c1-c1cc(C(=O)NC2(C(=O)O)C3CC4CC(C3)CC2C4)nn1-c1ccc(C(=O)N(C)CCCN(C)CCCN(C)C(=O)CCCC(=O)NCCCOCCOCCOCCCNC(=O)CCC(=O)NCCCOCCOCCOCCCNC(=O)CCC(=O)NCCCOCCOCCOCCCNC(=O)CCC(=O)N[C@@H](CCCCNC(=O)CN2CCN(CC(=O)O)CCN(CC(=O)O)CCN(CC(=O)O)CC2)C(=O)NCCCOCCOCCOCCCNC(=O)CCC(=O)NCCCOCCOCCOCCCNC(=O)CCC(=O)NCCCOCCOCCOCCCNC(=O)CCC(=O)NCCCC(=O)N[C@H](CCCNC(=N)N)C(=O)N[C@@H](CCCNC(=N)N)C(=O)N2CCC[C@H]2C(=O)N[C@@H](Cc2ccc(O)cc2)C(=O)N[C@H](C(=O)N[C@@H](CC(C)C)C(=O)O)C(C)(C)C)cc1C(C)C (stereo partly drawn) [(18), 1206-Glutar-Ttds3-Lys(DOTA)-Ttds3-GABA-arg-Arg-Pro-Tyr-Tle-Leu-OH]
IC50 (NTR1 [1]): 2.7 nM
EC50 (NTR1 [2]): > 50000 nM
IC50 (NTR1 [2]): 3.8 nM

Structure (SMILES): COc1cccc(OC)c1-c1cc(C(=O)NC2(C(=O)O)C3CC4CC(C3)CC2C4)nn1-c1ccc(C(=O)N(C)CCCN(C)CCCN(C)C(=O)CCCNC(=O)CCC(=O)NCCCOCCOCCOCCCNC(=O)[C@H](CCCCNC(=O)CN2CCN(CC(=O)O)CCN(CC(=O)O)CCN(CC(=O)O)CC2)NC(=O)CCC(=O)NCCCOCCOCCOCCCNC(=O)CCCC(=O)N(C)CCCN(C)CCCN(C)C(=O)c2ccc(-n3nc(C(=O)NC4(C(=O)O)C5CC6CC(C5)CC4C6)cc3-c3c(OC)cccc3OC)c(C(C)C)c2)cc1C(C)C (stereo partly drawn) [(12), 1206-Glutar-Ttds-Lys(DOTA)-Ttds-GABA-1206]
IC50 (NTR1 [1]; [4]): 2.5 nM
EC50 (NTR1 [2]; [5]): > 50000 nM
IC50 (NTR1 [2]; [6]): 2.5 nM

Structure (SMILES): COc1cccc(OC)c1-c1cc(C(=O)NC2(C(=O)O)C3CC4CC(C3)CC2C4)nn1-c1ccc(C(=O)N(C)CCCN(C)CCCN(C)C(=O)CCCC(=O)NCCCOCCOCCOCCCNC(=O)CCC(=O)NCCCC[C@H](NC(=O)CCC(=O)NCCCOCCOCCOCCCNC(=O)CCCC(=O)N(C)CCCN(C)CCCN(C)C(=O)c2ccc(-n3nc(C(=O)NC4(C(=O)O)C5CC6CC(C5)CC4C6)cc3-c3c(OC)cccc3OC)c(C(C)C)c2)C(=O)NCCCOCCOCCOCCCNC(=O)CCC(=O)N[C@@H](CC(N)=O)C(=O)N[C@@H](C)C(=O)N[C@H](C(=O)N2CCC[C@H]2C(=O)N[C@@H](CC(N)=O)C(=O)N[C@@H](CC(C)C)C(=O)N[C@@H](CCCNC(=N)N)C(=O)NCC(=O)N[C@@H](CC(=O)O)C(=O)N[C@@H](CC(C)C)C(=O)N[C@@H](CCC(N)=O)C(=O)N[C@H](C(=O)N[C@@H](CC(C)C)C(=O)N[C@@H](C)C(=O)N[C@@H](CCC(N)=O)C(=O)N[C@@H](CCCCN)C(=O)N[C@H](C(=O)N[C@@H](C)C(=O)N[C@@H](CCCNC(=N)N)C(=O)N[C@H](C(=O)NCCCC(=O)NCCCOCCOCCOCCCNC(=O)CCC(=O)N[C@@H](CCCCNC(=O)CN2CCN(CC(=O)O)CCN(CC(=O)O)CCN(CC(=O)O)CC2)C(N)=O)[C@@H](C)O)C(C)C)C(C)C)C(C)C)cc1C(C)C (stereo partly drawn) [(25)]
IC50 (NTR1 [1]): 7.5 nM
EC50 (NTR1 [2]): > 50000 nM
IC50 (NTR1 [2]): 12 nM

Structure (SMILES): COc1cccc(OC)c1-c1cc(C(=O)NC2(C(=O)O)C3CC4CC(C3)CC2C4)nn1-c1ccc(C(=O)N(C)CCCN(C)CCCN(C)C(=O)CCN2C(=O)CC(SC[C@H](NC(=O)CCC(=O)NCCCOCCOCCOCCCNC(=O)CCC(=O)NCCCOCCOCCOCCCNC(=O)CCC(=O)NCCCOCCOCCOCCCNC(=O)[C@H](CCCCNC(=O)CN3CCN(CC(=O)O)CCN(CC(=O)O)CCN(CC(=O)O)CC3)NC(=O)CCC(=O)NCCCOCCOCCOCCCNC(=O)CCC(=O)NCCCOCCOCCOCCCNC(=O)CCC(=O)NCCCOCCOCCOCCCNC(=O)CCCNC(=O)[C@@H](NC(=O)[C@H](CCCNC(=N)N)NC(=O)[C@H](C)NC(=O)[C@@H](NC(=O)[C@H](CCCCN)NC(=O)[C@H](CCC(N)=O)NC(=O)[C@H](C)NC(=O)[C@H](CC(C)C)NC(=O)[C@@H](NC(=O)[C@H](CCC(N)=O)NC(=O)[C@H](CC(C)C)NC(=O)[C@H](CC(=O)O)NC(=O)CNC(=O)[C@H](CCCNC(=N)N)NC(=O)[C@H](CC(C)C)NC(=O)[C@H](CC(N)=O)NC(=O)[C@@H]3CCCN3C(=O)[C@@H](NC(=O)[C@H](C)NC(=O)[C@H](CC(N)=O)NC(C)=O)C(C)C)C(C)C)C(C)C)[C@@H](C)O)C(N)=O)C2=O)cc1C(C)C (stereo partly drawn) [(23)]
IC50 (NTR1 [1]): 6.7 nM
EC50 (NTR1 [2]): > 50000 nM
IC50 (NTR1 [2]): 15 nM

IC50 (NTR1 [3]): 125 nM
Structure (SMILES): COc1cccc(OC)c1-c1cc(C(=O)N[C@H](C(=O)O)C2CCCCC2)nn1-c1ccc(C(=O)N(C)CCCN(C)CCCN(C)C(=O)CN2CCN(CC(=O)O)CCN(CC(=O)O)CCN(CC(=O)O)CC2)cc1C(C)C [(IVa), (S)-2-{[1-{4-[(3-{[3-(DOTA-methyl-amino)-propyl]-methyl-amino}-propyl)-methyl-carbamoyl]-2-isopropyl-phenyl}-5-(2,6-dimethoxy-phenyl)-1H-pyrazole-3-carbonyl]-amino}-cyclohexyl-acetic acid]
